Laboratory results: PubChem BioAssay AID1259407 (Chemical Carcinogenesis Research Information System (CCRIS), 2018)
Calls of active or inactive are those of the source. No rule for the calls is given here.

Test system: CCRIS mutagenicity, Ames/micronucleus/aberration tests
Experiment: CCRIS mutagenicity studies
[1] = Test System: AMES SALMONELLA TYPHIMURIUM, Strain/Indicator: TA98, Metabolic Activation: NONE, Method: PREINCUBATION
[2] = Test System: AMES SALMONELLA TYPHIMURIUM, Strain/Indicator: TA100, Metabolic Activation: NONE, Method: PREINCUBATION
[3] = Test System: AMES SALMONELLA TYPHIMURIUM, Strain/Indicator: TA1535, Metabolic Activation: NONE, Method: PREINCUBATION
[4] = Test System: AMES SALMONELLA TYPHIMURIUM, Strain/Indicator: TA1537, Metabolic Activation: NONE, Method: PREINCUBATION

## Cc1c2c(c(C)c3ccccc13)[C@H]1O[C@H]1c1ccccc1-2
[1]
  mutagenic call: active; positive

## CC(C)O
Test System: AMES SALMONELLA TYPHIMURIUM, Strain/Indicator: TA97, Metabolic Activation: HAMSTER, LIVER, S-9, AROCLOR 1254 (10 OR 30%), Method: PREINCUBATION
  mutagenic call: inactive; negative
Test System: AMES SALMONELLA TYPHIMURIUM, Strain/Indicator: TA97, Metabolic Activation: NONE, Method: PREINCUBATION
  mutagenic call: inactive; negative
Test System: AMES SALMONELLA TYPHIMURIUM, Strain/Indicator: TA97, Metabolic Activation: RAT, LIVER, S-9, AROCLOR 1254 (10 OR 30%), Method: PREINCUBATION
  mutagenic call: inactive; negative
Test System: AMES SALMONELLA TYPHIMURIUM, Strain/Indicator: TA98, Metabolic Activation: HAMSTER, LIVER, S-9, AROCLOR 1254 (10 OR 30%), Method: PREINCUBATION
  mutagenic call: inactive; negative
[1]
  mutagenic call: inactive; negative
Test System: AMES SALMONELLA TYPHIMURIUM, Strain/Indicator: TA98, Metabolic Activation: RAT, LIVER, S-9, AROCLOR 1254 (10 OR 30%), Method: PREINCUBATION
  mutagenic call: inactive; negative
Test System: AMES SALMONELLA TYPHIMURIUM, Strain/Indicator: TA98, Metabolic Activation: RAT, LIVER, S-9, KC 500, Method: PREINCUBATION
  mutagenic call: inactive; negative
Test System: AMES SALMONELLA TYPHIMURIUM, Strain/Indicator: TA98, Metabolic Activation: RAT, LIVER, S-9, PHENOBARBITAL AND BETA-NAPHTHOFLAVONE, Method: PREINCUBATION
  mutagenic call: inactive; negative
Test System: AMES SALMONELLA TYPHIMURIUM, Strain/Indicator: TA100, Metabolic Activation: HAMSTER, LIVER, S-9, AROCLOR 1254 (10 OR 30%), Method: PREINCUBATION
  mutagenic call: inactive; negative
[2]
  mutagenic call: inactive; negative
Test System: AMES SALMONELLA TYPHIMURIUM, Strain/Indicator: TA100, Metabolic Activation: RAT, LIVER, S-9, AROCLOR 1254 (10 OR 30%), Method: PREINCUBATION
  mutagenic call: inactive; negative
Test System: AMES SALMONELLA TYPHIMURIUM, Strain/Indicator: TA100, Metabolic Activation: RAT, LIVER, S-9, KC 500, Method: PREINCUBATION
  mutagenic call: inactive; negative
Test System: AMES SALMONELLA TYPHIMURIUM, Strain/Indicator: TA100, Metabolic Activation: RAT, LIVER, S-9, PHENOBARBITAL AND BETA-NAPHTHOFLAVONE, Method: PREINCUBATION
  mutagenic call: inactive; negative
Test System: AMES SALMONELLA TYPHIMURIUM, Strain/Indicator: TA102, Metabolic Activation: NONE, Method: PREINCUBATION
  mutagenic call: inactive; negative
Test System: AMES SALMONELLA TYPHIMURIUM, Strain/Indicator: TA102, Metabolic Activation: RAT, LIVER, S-9, PHENOBARBITAL AND BETA-NAPHTHOFLAVONE, Method: PREINCUBATION
  mutagenic call: inactive; negative
Test System: AMES SALMONELLA TYPHIMURIUM, Strain/Indicator: TA104, Metabolic Activation: NONE, Method: PREINCUBATION
  mutagenic call: inactive; negative
Test System: AMES SALMONELLA TYPHIMURIUM, Strain/Indicator: TA104, Metabolic Activation: RAT, LIVER, S-9, PHENOBARBITAL AND BETA-NAPHTHOFLAVONE, Method: PREINCUBATION
  mutagenic call: inactive; negative
Test System: AMES SALMONELLA TYPHIMURIUM, Strain/Indicator: TA1535, Metabolic Activation: HAMSTER, LIVER, S-9, AROCLOR 1254 (10 OR 30%), Method: PREINCUBATION
  mutagenic call: inactive; negative
[3]
  mutagenic call: inactive; negative
Test System: AMES SALMONELLA TYPHIMURIUM, Strain/Indicator: TA1535, Metabolic Activation: RAT, LIVER, S-9, AROCLOR 1254 (10 OR 30%), Method: PREINCUBATION
  mutagenic call: inactive; negative
Test System: AMES SALMONELLA TYPHIMURIUM, Strain/Indicator: TA1535, Metabolic Activation: RAT, LIVER, S-9, KC 500, Method: PREINCUBATION
  mutagenic call: inactive; negative
Test System: AMES SALMONELLA TYPHIMURIUM, Strain/Indicator: TA1535, Metabolic Activation: RAT, LIVER, S-9, PHENOBARBITAL AND BETA-NAPHTHOFLAVONE, Method: PREINCUBATION
  mutagenic call: inactive; negative
Test System: AMES SALMONELLA TYPHIMURIUM, Strain/Indicator: TA1537, Metabolic Activation: HAMSTER, LIVER, S-9, AROCLOR 1254 (30%), Method: PREINCUBATION
  mutagenic call: inactive; negative
[4]
  mutagenic call: inactive; negative
Test System: AMES SALMONELLA TYPHIMURIUM, Strain/Indicator: TA1537, Metabolic Activation: RAT, LIVER, S-9, AROCLOR 1254 (30%), Method: PREINCUBATION
  mutagenic call: inactive; negative
Test System: AMES SALMONELLA TYPHIMURIUM, Strain/Indicator: TA1537, Metabolic Activation: RAT, LIVER, S-9, KC 500, Method: PREINCUBATION
  mutagenic call: inactive; negative
Test System: AMES SALMONELLA TYPHIMURIUM, Strain/Indicator: TA1537, Metabolic Activation: RAT, LIVER, S-9, PHENOBARBITAL AND BETA-NAPHTHOFLAVONE, Method: PREINCUBATION
  mutagenic call: inactive; negative
Test System: AMES SALMONELLA TYPHIMURIUM, Strain/Indicator: TA1538, Metabolic Activation: NONE, Method: PREINCUBATION
  mutagenic call: inactive; negative
Test System: AMES SALMONELLA TYPHIMURIUM, Strain/Indicator: TA1538, Metabolic Activation: RAT, LIVER, S-9, KC 500, Method: PREINCUBATION
  mutagenic call: inactive; negative
Test System: CHINESE HAMSTER OVARY, Strain/Indicator: CHO-K1-BH4 (HGPRT), Metabolic Activation: NONE
  mutagenic call: inactive; negative
Test System: CHINESE HAMSTER OVARY, Strain/Indicator: CHO-K1-BH4 (HGPRT), Metabolic Activation: RAT, LIVER, S-9, AROCLOR 1254
  mutagenic call: inactive; negative
Test System: E. COLI, Strain/Indicator: WP2UVRA/PKM101, Metabolic Activation: NONE, Method: PREINCUBATION
  mutagenic call: inactive; negative
Test System: E. COLI, Strain/Indicator: WP2UVRA/PKM101, Metabolic Activation: RAT, LIVER, S-9, PHENOBARBITAL AND BETA-NAPHTHOFLAVONE, Method: PREINCUBATION
  mutagenic call: inactive; negative
Test System: E. COLI, Strain/Indicator: WP2 UVRA, Metabolic Activation: NONE, Method: PREINCUBATION
  mutagenic call: inactive; negative
Test System: E. COLI, Strain/Indicator: WP2UVRA, Metabolic Activation: NONE, Method: PREINCUBATION
  mutagenic call: inactive; negative
Test System: E. COLI, Strain/Indicator: WP2 UVRA, Metabolic Activation: RAT, LIVER, S-9, KC 500, Method: PREINCUBATION
  mutagenic call: inactive; negative
Test System: E. COLI, Strain/Indicator: WP2UVRA, Metabolic Activation: RAT, LIVER, S-9, PHENOBARBITAL AND BETA-NAPHTHOFLAVONE, Method: PREINCUBATION
  mutagenic call: inactive; negative

## CN1CCOCC1
[1]
  mutagenic call: inactive; negative
Test System: AMES SALMONELLA TYPHIMURIUM, Strain/Indicator: TA98, Metabolic Activation: RAT, LIVER, S-9, PCB, Method: PREINCUBATION
  mutagenic call: inactive; negative
[2]
  mutagenic call: inactive; negative
Test System: AMES SALMONELLA TYPHIMURIUM, Strain/Indicator: TA100, Metabolic Activation: RAT, LIVER, S-9, PCB, Method: PREINCUBATION
  mutagenic call: inactive; negative

## CCCCCCCCCCCOC(=O)c1ccccc1C(=O)OCCCCCCCCCCC
Test System: AMES SALMONELLA TYPHIMURIUM, Strain/Indicator: TA98, Metabolic Activation: HAMSTER, LIVER, S-9, AROCLOR 1254 (10%), Method: PREINCUBATION
  mutagenic call: inactive; negative
[1]
  mutagenic call: inactive; negative
Test System: AMES SALMONELLA TYPHIMURIUM, Strain/Indicator: TA98, Metabolic Activation: RAT, LIVER, S-9, AROCLOR 1254 (10%), Method: PREINCUBATION
  mutagenic call: inactive; negative
Test System: AMES SALMONELLA TYPHIMURIUM, Strain/Indicator: TA100, Metabolic Activation: HAMSTER, LIVER, S-9, AROCLOR 1254 (10%), Method: PREINCUBATION
  mutagenic call: inactive; negative
[2]
  mutagenic call: inactive; negative
Test System: AMES SALMONELLA TYPHIMURIUM, Strain/Indicator: TA100, Metabolic Activation: RAT, LIVER, S-9, AROCLOR 1254 (10%), Method: PREINCUBATION
  mutagenic call: inactive; negative
Test System: AMES SALMONELLA TYPHIMURIUM, Strain/Indicator: TA1535, Metabolic Activation: HAMSTER, LIVER, S-9, AROCLOR 1254 (10%), Method: PREINCUBATION
  mutagenic call: inactive; negative
[3]
  mutagenic call: inactive; negative
Test System: AMES SALMONELLA TYPHIMURIUM, Strain/Indicator: TA1535, Metabolic Activation: RAT, LIVER, S-9, AROCLOR 1254 (10%), Method: PREINCUBATION
  mutagenic call: inactive; negative
Test System: AMES SALMONELLA TYPHIMURIUM, Strain/Indicator: TA1537, Metabolic Activation: HAMSTER, LIVER, S-9, AROCLOR 1254 (10%), Method: PREINCUBATION
  mutagenic call: inactive; negative
[4]
  mutagenic call: inactive; negative
Test System: AMES SALMONELLA TYPHIMURIUM, Strain/Indicator: TA1537, Metabolic Activation: RAT, LIVER, S-9, AROCLOR 1254 (10%), Method: PREINCUBATION
  mutagenic call: inactive; negative
Test System: MOUSE LYMPHOMA, Strain/Indicator: L5178Y (TK+/TK-), Metabolic Activation: NONE, Method: SUSPENSION/PLATE
  mutagenic call: inactive; negative
Test System: MOUSE LYMPHOMA, Strain/Indicator: L5178Y (TK+/TK-), Metabolic Activation: RAT LIVER S-9, Method: SUSPENSION/PLATE
  mutagenic call: inactive; negative
